# Legend:
# Test in all cases: AUC of viability dose-response curve (% viability x log10 dose units); higher = less sensitive
# Conditions in all cases: 48 h
# NOMO1 = test system: NOMO1
# Procedure, shortened: (§1)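 Leukemia cells adapted to each medium were seeded at 500 or 1000 cells/well in 1536-well plates and dosed with library compounds in DMSO at 11 threefold doses from 47 μM to 0.79 nM for 48 h at 37°C. CellTiter-Glo One luminescence was normalised per plate to DMSO and cell-free wells, then fitted with a four-parameter log-logistic model over log10 doses. Area under the curve was taken from this fit by the trapezoidal rule, with curves above full viability scaled and curves failing quality control removed.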
# P12-Ichikawa = test system: P12-Ichikawa
# Procedure, shortened: as §1
# SEM cells = test system: SEM cells
# Procedure, shortened: as §1
# [1] = RPMI 5 mM glucose + 10% dialyzed FBS
SMILES,AUC of viability dose-response curve (NOMO1; HPLM + 10% dialyzed FBS),AUC of viability dose-response curve (NOMO1; RPMI 5 mM glucose + 10% FBS),AUC of viability dose-response curve (NOMO1; [1]),AUC of viability dose-response curve (P12-Ichikawa; HPLM + 10% dialyzed FBS),AUC of viability dose-response curve (P12-Ichikawa; RPMI 5 mM glucose + 10% FBS),AUC of viability dose-response curve (P12-Ichikawa; [1]),AUC of viability dose-response curve (SEM cells; HPLM + 10% dialyzed FBS),AUC of viability dose-response curve (SEM cells; RPMI 5 mM glucose + 10% FBS),AUC of viability dose-response curve (SEM cells; [1])
O=P(O)(O)C(O)(Cn1ccnc1)P(=O)(O)O,471,474,477,448,445,450,427,425,424
COc1ccc(C(=O)CC2(O)C(=O)Nc3c(Cl)ccc(Cl)c32)cc1 (stereo not given),408,416,418,388,387,406,391,330,388
CC[C@@H]([C@H](C)O)n1ncn(-c2ccc(N3CCN(c4ccc(OCC5CO[C@@](Cn6cncn6)(c6ccc(F)cc6F)C5)cc4)CC3)cc2)c1=O (stereo not given in full),457,427,423,450,447,425,452,452,458
Nc1c2c(nc3ccccc13)CCCC2,352,376,388,434,440,433,431,390,402
COC(=O)c1ccc2c(c1)NC(=O)/C2=C(\Nc1ccc(N(C)C(=O)CN2CCN(C)CC2)cc1)c1ccccc1,453,459,441,458,462,451,,,
COc1cc2c(cc1OC)CN(CCc1ccc(NC(=O)c3cc(OC)c(OC)cc3NC(=O)c3cnc4ccccc4c3)cc1)CC2,459,458,464,412,401,402,445,418,432
O=C(CCCN1CCN(c2ccc(F)cc2)CC1)NC1c2ccccc2CSc2ccccc21 (stereo not given),427,440,438,455,434,434,429,388,402
CNC(=O)c1ccc(Nc2cc(Nc3ccccc3[S+](=O)([O-])C(C)C)c3cc[nH]c3n2)nc1,422,407,414,367,355,377,319,345,323
CC[C@H]1OC(=O)[C@H](C)C(=O)[C@H](C)[C@@H](O[C@H]2O[C@H](C)C[C@H](N(C)C)[C@H]2O)[C@](C)(OC)C[C@@H](C)C(=O)[C@H](C)[C@H]2N(CCCCn3cnc(-c4cccnc4)c3)C(=O)O[C@]12C,439,447,459,452,444,395,447,462,453
Nc1ccc([S+](=O)([O-])Nc2ccnn2-c2ccccc2)cc1,446,467,451,470,455,464,444,452,440
CCc1ccc(/C=C2/SC(=S)NC2=O)cc1,377,387,375,400,386,377,,,
O=C(c1ccccc1)c1ccc2n1CCC2C(=O)O (stereo not given),461,458,464,423,413,424,439,421,426
CC(C)c1cc(C(C)C)c(CC(=O)N[S+](=O)([O-])Oc2c(C(C)C)cccc2C(C)C)c(C(C)C)c1,445,439,426,469,469,451,471,467,464
CNc1nc(Nc2cnn([C@H]3CCN(C4COC4)C[C@@H]3F)c2Cl)ncc1C(F)(F)F,316,360,391,368,400,397,388,276,363
CC(=O)Oc1ccccc1C(=O)Nc1ncc([N+](=O)[O-])s1,459,464,420,457,446,442,441,454,470
C[C@@H](CN1CC(=O)NC(=O)C1)N1CC(=O)NC(=O)C1,273,296,301,278,317,303,233,206,198
COC1=CC=C(C(=C1)OC(C)C)C/2=N/[C@@H]([C@@H](N2C(=O)N3CCNC(=O)C3)C4=CC=C(Cl)C=C4)C5=CC=C(Cl)C=C5,409,439,434,404,427,413,279,250,253
CN1\C=N/C2=CC=C(NC3=CC(=CC=C3C)NC(=O)C4=CC(=CC=C4)C(C)(C)C#N)C=C2C1=O,376,377,355,421,395,422,424,431,433
COC1=C(OCCCN2CCOCC2)C=C3N=CC=C(OC4=CC=C(C=C4F)\C5=C\N=C(\NC6=CC=C(F)C=C6)N(C)C5=O)C3=C1,441,447,429,447,448,445,282,297,258
Cc1ccc([S+](=O)([O-])OCC(=O)Nc2ccc(C(=O)O)c(O)c2)cc1,469,460,448,446,469,465,458,438,455
O=C(O)c1cc(/N=N/c2ccc([S+](=O)([O-])Nc3ccccn3)cc2)ccc1O,471,466,470,465,468,474,452,465,453
Cc1ccnc2c1NC(=O)c1cccnc1N2C1CC1,405,424,436,474,464,473,457,439,444
NC(=O)c1ccc(N(C(N)=O)c2c(F)cccc2F)nc1-c1ccc(F)cc1F,472,447,429,476,468,449,412,454,411

SMILES,AUC of viability dose-response curve (NOMO1; HPLM + 10% dialyzed FBS),AUC of viability dose-response curve (NOMO1; RPMI 5 mM glucose + 10% FBS),AUC of viability dose-response curve (NOMO1; [1]),AUC of viability dose-response curve (P12-Ichikawa; HPLM + 10% dialyzed FBS),AUC of viability dose-response curve (P12-Ichikawa; RPMI 5 mM glucose + 10% FBS),AUC of viability dose-response curve (P12-Ichikawa; [1]),AUC of viability dose-response curve (SEM cells; HPLM + 10% dialyzed FBS),AUC of viability dose-response curve (SEM cells; RPMI 5 mM glucose + 10% FBS),AUC of viability dose-response curve (SEM cells; [1])
CN(C)CC(C)(C)CNc1nn2c(-c3ccccc3)nnc2cc1C1CCC1,416,447,459,411,405,433,,,
CC(C)OC(=O)[C@H](C)N[P@](=O)(OC[C@H]1O[C@@H](N2\C=C/C(=O)NC2=O)[C@](C)(F)[C@@H]1O)OC3=CC=CC=C3,372,412,409,331,391,385,387,399,405
CCCCCCCCCCCCCC(=O)N[C@H](CO)[C@H](O)c1ccc([N+](=O)[O-])cc1,342,323,327,369,328,318,296,276,280
C=CC(=O)Nc1cc2c(Nc3ccc(F)c(Cl)c3)ncnc2cc1OCCCN1CCOCC1,421,429,438,421,441,442,,,
CC(C(=O)O)c1ccc2c(c1)CC(=O)c1ccccc1S2 (stereo not given),389,418,415,427,418,425,440,461,458
CC(N[C@H]1CCCC[C@@H]1NC(=O)c1ccc(Cl)cc1)c1cccc2ccccc12 (stereo not given in full),398,416,421,428,420,425,449,449,455
CNCC[C@H](Oc1cccc2ccccc12)c1cccs1,411,429,430,453,466,459,437,437,412
COC1=C(OCCCN2CCOCC2)C=CC\3=C1/N=C(/NC(=O)C4=CN=C(N)N=C4)N5CC/N=C35,,,,385,344,364,369,360,358
CC12CC3CC(C)(C1)CC(N)(C3)C2,446,457,461,450,464,467,440,419,459
CN1CC(=O)N2[C@H](c3ccc4c(c3)OCO4)c3[nH]c4ccccc4c3C[C@@H]2C1=O,427,447,449,456,440,419,466,435,461
CC1=CC(=CC(=C1C\C2=N\CCN2)C)C(C)(C)C,395,420,407,473,458,463,443,471,460
COc1cc(C(=O)N2CC[C@@H](O)[C@@H](N)C2)cc2nc(-c3cc4ccccc4n3CC3CC3)n(C)c12,294,327,338,279,336,324,357,276,335
C[C@@H]1CCO[C@H]2CN\3/C=C(/C(=O)NCC4=C(F)C=C(F)C=C4)C(=O)\C(=C3C(=O)N12)O,458,442,452,456,460,459,447,454,465
COc1ccc2c(c1)CN(C)CC2c1ccc(Cl)c(Cl)c1 (stereo not given),430,463,437,475,471,461,465,467,443
Nc1ncnc2c1ncn2[C@@H]1O[C@H](CO)C[C@H]1O,439,420,445,442,439,430,426,445,416
CN1CCCN(CC1)C2=CC=C3C(=O)\C(=C/4SC5=C(C=CC=C5)N4C3=N2)C(=O)NCC6=CN=C(C)C=N6,442,468,450,447,410,420,417,335,374
NC[C@H]1O[C@H](O[C@@H]2[C@H](O)[C@@H](O[C@H]3O[C@H](CO)[C@@H](O)[C@H](N)[C@H]3O)[C@H](N)C[C@@H]2N)[C@H](O)[C@@H](O)[C@@H]1O,455,452,458,445,466,461,,,
C=C[C@H]1CN2CCC1C[C@@H]2C(O)c1ccnc2ccc(OC)cc12 (stereo not given in full),462,467,463,473,470,467,,,
CCCCOCCOc1nc(-c2ccc(C(=O)O)c(F)c2)sc1C,420,437,436,464,434,439,456,460,475
C[C@]12CC[C@H]3[C@@H](CCC4=CC(=O)CC[C@@H]43)[C@@H]1CC[C@@H]2OC(=O)CCc1ccccc1,463,469,466,469,474,470,415,416,443
CCOC(=O)C(C)OC1=CC=CC2=C1\C=C/N(CC(=O)NC3=CC=C4OCCOC4=C3)C2=O (stereo not given),441,434,442,442,452,436,453,441,443
CCOC(=O)\C1=C\[C@]2(CC)CCCN3CCC4=C([C@H]23)[N]1C5=C4C=CC=C5,464,464,466,469,470,468,464,469,476
CCCCCNC(=O)N1CCC(CN(Cc2ccc(Cl)cc2)Cc2ccc([N+](=O)[O-])s2)C1 (stereo not given),,,,443,446,445,461,447,456
